In patent publication US7115642B2, “Substituted diphenyl isoxazoles, pyrazoles and oxadiazoles useful for treating HCV infection” (priority 2003, dated 2006):

test system: HCV replicon (5-2 Luc replicon-comprising cells); test: HCV replicon assay (luciferase); assay type: cell-based, Hepatitis C virus; conditions: 5-2 Luc replicon cells, luciferase readout; read-out: Replicon IC50
Text: In one embodiment, the inhibitory activity of the compounds can be confirmed in a replicon assay that assesses the ability of a test compound to block or inhibit HCV replication in replicon cells. One example of a suitable replicon assay is the liver cell-line Huh 7-based replicon assay described in Lohmann et al., 1999, Science 285:110–113. A specific example of this replicon assay which utilizes luciferase translation is provided in the Examples Section. In one embodiment of this assay, the amount of test compound that yields a 50% reduction in translation as compared to a control cell (IC50) may be determined.
The inhibitory activity of certain exemplary compounds of the invention was confirmed using an HCV replicon assay. The HCV replicon can include such features as the HCV 5′ untranslated region including the HCV IRES, the HCV 3′ untranslated region, selected HCV genes encoding HCV polypeptides, selectable markers, and a reporter gene such as luciferase, GFP, etc. In the assay, actively dividing 5-2 Luc replicon-comprising cells (obtained from Ralf Bartenschlager; see Lohmann et al., 1999, Science 285:110–113) were seeded at a density of between about 5,000 and 7,500 cells/well onto 96 well plates (about 90 μl of cells per well) and incubated at 37° C. and 5% CO2 for 24 hours. Then, the test compound (in a volume of about 10 μl) was added to the wells at various concentrations and the cells were incubated for an additional 24 hours before luciferase assay. Briefly, the Bright-Glo reagent was diluted 1:1 with PBS and 100 μl of diluted reagent was added to each well. After 5 min of incubation at room temperature, luciferin emission was quantified with a luminometer. In this assay, the amount of test compound that yielded a 50% reduction in luciferase activity (IC50) was determined.
In TABLE 1, a value of “+” indicates an IC50 of 10 μM or less in the specified assay; a value of “−” indicates an IC50 of greater than 10 μM in the specified assay.

| SMILES | IC50 |
| --- | --- |
| CN(C)C1CCN(c2cccc(Cl)c2-c2cc(-c3cccc(NC(=O)C(Cl)Cl)c3)on2)C1 (racemic) [Compound 132, (±)-2,2-Dichloro-N-[3-[3-[2-chloro-6-(3-dimethylamino-N-pyrrolidino)phenyl]-5-isoxazolyl]-phenyl]Acetamide] | < 10 µM |
| Cc1cc(OCCN2CCOCC2)cc(C)c1-c1cc(-c2cccc(NC(=O)C(Cl)Cl)c2)on1 [Compound 23, 2,2-Dichloro-N-[3-[3-[2,6-dimethyl-4-(N-morpholino-2-ethyleneoxy)phenyl]-5-isoxazolyl]phenyl]Acetamide] | < 10 µM |
| CN(C(=O)C(Cl)Cl)c1cccc(-c2cc(-c3c(Cl)cccc3Cl)no2)c1 [Compound 57, 2,2-Dichloro-N-[3-[3-(2,6-dichlorophenyl)-5-isoxazolyl]phenyl]-N-methyl Acetamide] | < 10 µM |
| O=C(Nc1cccc(-c2cc(-c3c(Cl)cc(OCCCN4CCOCC4)cc3Cl)no2)c1)C(Cl)Cl [Compound 73, 2,2-Dichloro-N-[3-[3-[2,6-dichloro-4-(N-morpholinopropyleneoxy)phenyl]-5-isoxazolyl]-phenyl]Acetamide] | < 10 µM |
| O=C(Nc1cccc(-c2noc(-c3c(Cl)cccc3Cl)n2)c1)C(Cl)Cl [Compound 87, 2,2-Dichloro-N-[3-[5-(2,6-dichlorophenyl)-3-(1,2,4-oxadiazolyl)]phenyl]Acetamide] | < 10 µM |
| O=C(Nc1cccc(-c2cc(-c3c(Cl)cccc3OCCN3CCOCC3)no2)c1)C(Cl)Cl [Compound 95, 2,2-Dichloro-N-[3-[3-[2-chloro-6-(N-morpholino-2-ethyleneoxy)phenyl]-5isoxazolyl]-phenyl]Acetamide] | < 10 µM |
| COC(=O)c1ccccc1-c1cc(-c2cccc(NC(=O)C(Cl)Cl)c2)on1 [Compound 115, 2,2-Dichloro-N-[3-[3-(2-carbomethoxy)phenyl-5-isoxazolyl]phenyl]Acetamide] | < 10 µM |
| O=C(Nc1cccc(-c2cc(-c3ccccc3-c3ccccc3)no2)c1)C(Cl)Cl [Compound 123, 2,2-Dichloro-N-[3-[3-(2-phenyl)phenyl-5-isoxazolyl]phenyl]Acetamide] | < 10 µM |
| O=C(Nc1cccc(-c2cc(-c3c(Cl)cc(OCCN4CCCCC4)cc3Cl)no2)c1)C(Cl)Cl [Compound 125, 2,2-Dichloro-N-[3-[3-[2,6-dichloro-4-(N-piperidinylethylenoxy)phenyl]-5-isoxazolyl]-phenyl]Acetamide] | < 10 µM |
| CN(C)CCN(C)c1cccc(Cl)c1-c1cc(-c2cccc(NC(=O)C(Cl)Cl)c2)on1 [Compound 131, 2-Dichloro-N-[3-[3-[2-chloro-6-(N,N-dimethylethylene-N′-methylamino)phenyl]-5-isoxazolyl]-phenyl]Acetamide] | < 10 µM |
| O=C(Nc1cccc(-c2cc(-c3c(Cl)cc(Cl)cc3OCCN3CCOCC3)no2)c1)C(Cl)Cl [Compound 143, 2,2-Dichloro-N-[3-[3-[2,4-dichloro-6-(N-morpholino-2-ethyleneoxy)phenyl]-5-isoxazolyl]-phenyl]Acetamide] | > 10 µM |
| CS(=O)(=O)c1cccc(F)c1-c1cc(-c2cccc(NC(=O)C(Cl)Cl)c2)on1 [Compound 153, 2,2-Dichloro-N-[3-[3-(2-fluoro-6-methylsulfonyl)phenyl-5-isoxazolyl]phenyl]Acetamide] | > 10 µM |
| O=C(Nc1cc(-c2cc(-c3c(Cl)cccc3Cl)no2)ccc1N1CCOCC1)C(Cl)Cl [Compound 169] | > 10 µM |
| O=C(Nc1cc(-c2cc(-c3c(Cl)cccc3Cl)no2)ccc1OCCN1CCOCC1)C(Cl)Cl [Compound 171, 2,2-Dichloro-N-[3-[3-(2,6-dichlorophenyl)-5-isoxazolyl]-6-(N-morpholino-2-ethyleneoxy)phenyl]Acetamide] | > 10 µM |
| O=C(Nc1cccc(-c2cc(-c3c(Cl)cccc3N3CCOCC3)no2)c1)C(Cl)Cl [Compound 500] | < 10 µM |
| O=C(Nc1cccc(-c2cc(-c3c(Cl)cccc3N3CCN(c4ccccn4)CC3)no2)c1)C(Cl)Cl [Compound 501] | < 10 µM |
| O=C(Nc1cccc(-c2cc(-c3c(Cl)cccc3N3CCCCC3)no2)c1)C(Cl)Cl [Compound 503] | < 10 µM |
| NC1CCN(c2cccc(Cl)c2-c2cc(-c3cccc(NC(=O)C(Cl)Cl)c3)on2)C1 (stereo not drawn) [Compound 504] | < 10 µM |
| CCNc1cccc(Cl)c1-c1cc(-c2cccc(NC(=O)C(Cl)Cl)c2)on1 [Compound 507] | < 10 µM |
| CCN(CC)c1cccc(Cl)c1-c1cc(-c2cccc(NC(=O)C(Cl)Cl)c2)on1 [Compound 508] | < 10 µM |

| SMILES | IC50 |
| --- | --- |
| CC(C)(C)OC(=O)N1CCN(c2cccc(Cl)c2-c2cc(-c3cccc(NC(=O)C(Cl)Cl)c3)on2)CC1 [Compound 510] | < 10 µM |
| O=C(Nc1cccc(-c2cc(-c3c(Cl)cccc3N3CCNCC3)no2)c1)C(Cl)Cl [Compound 511] | < 10 µM |
| [N-]=[N+]=Nc1cccc(Cl)c1-c1cc(-c2cccc(NC(=O)C(Cl)Cl)c2)on1 [Compound 512] | < 10 µM |
| O=C(Nc1cccc(-c2cc(-c3c(Cl)cccc3N3CCN(C(=O)c4ccccn4)CC3)no2)c1)C(Cl)Cl [Compound 513] | < 10 µM |
| O=C(Nc1cccc(-c2cc(-c3c(Cl)cccc3N3CCN(S(=O)(=O)c4ccccc4)CC3)no2)c1)C(Cl)Cl [Compound 514] | < 10 µM |
| O=C(Nc1cccc(-c2cc(-c3c(Cl)cccc3N3CCN(c4cnccn4)CC3)no2)c1)C(Cl)Cl [Compound 515] | < 10 µM |
| O=C(Nc1cccc(-c2cc(-c3c(Cl)cccc3N3CCN(c4ccccc4)CC3)no2)c1)C(Cl)Cl [Compound 516] | < 10 µM |
| O=C(Nc1cccc(-c2cc(-c3c(Cl)cccc3N3CCN(c4ncccn4)CC3)no2)c1)C(Cl)Cl [Compound 517] | < 10 µM |
| O=C(Nc1cccc(-c2cc(-c3c(Cl)cccc3N3CCN(C(=O)c4ccco4)CC3)no2)c1)C(Cl)Cl [Compound 519] | < 10 µM |
| O=C(Nc1cccc(-c2cc(-c3c(N4CCN(c5ccccn5)CC4)cccc3C(F)(F)F)no2)c1)C(Cl)Cl [Compound 520] | < 10 µM |
| O=C(Nc1cccc(-c2cc(-c3c(F)cccc3N3CCN(c4ccccn4)CC3)no2)c1)C(Cl)Cl [Compound 521] | < 10 µM |
| O=C(Nc1cccc(-c2cc(-c3c(Cl)cccc3N3CCN(Cc4cccnc4)CC3)no2)c1)C(Cl)Cl [Compound 522] | < 10 µM |
| O=C(Nc1cccc(-c2cc(-c3c(Cl)cccc3N3CCCN(c4ccccn4)CC3)no2)c1)C(Cl)Cl [Compound 523] | < 10 µM |
| COc1cccc(N2CCN(c3cccc(Cl)c3-c3cc(-c4cccc(NC(=O)C(Cl)Cl)c4)on3)CC2)c1 [Compound 524] | < 10 µM |
| O=C(Nc1cccc(-c2cc(-c3c(Cl)cccc3N3CCN(Cc4ccccn4)CC3)no2)c1)C(Cl)Cl [Compound 526] | < 10 µM |
| O=C(Nc1cccc(-c2cc(-c3c(Cl)cccc3N3CCC(OC(=O)C(Cl)Cl)CC3)no2)c1)C(Cl)Cl [Compound 527] | < 10 µM |
| O=C(Nc1cccc(-c2cc(-c3c(Cl)cccc3N3CCC(O)CC3)no2)c1)C(Cl)Cl [Compound 528] | < 10 µM |
| CS(=O)(=O)N1CCN(c2cccc(Cl)c2-c2cc(-c3cccc(NC(=O)C(Cl)Cl)c3)on2)CC1 [Compound 529] | < 10 µM |
| O=C(Nc1cccc(-c2cc(-c3c(Cl)cccc3N3CCN(C(=O)c4ccno4)CC3)no2)c1)C(Cl)Cl [Compound 530] | < 10 µM |

same assay, conditions: Hepatitis C virus; 5-2 Luc replicon cells, luciferase readout; read-out: Replicon IC50

| SMILES | IC50 |
| --- | --- |
| CN1CCN(c2cccc(Cl)c2-c2cc(-c3cccc(NC(=O)C(Cl)Cl)c3)on2)CC1 [Compound 99, 2,2-Dichloro-N-[3-[3-[2-chloro-6-(4-methylpiperazino)phenyl]-5-isoxazolyl]phenyl]Acetamide] | < 10 µM |
| O=C(Nc1ccc(S(=O)(=O)NN2CCOCC2)c(-c2cc(-c3c(Cl)cccc3Cl)no2)c1)C(Cl)Cl [Compound 107, 2,2-Dichloro-N-[3-[3-(2,6-dichlorophenyl)-5-isoxazolyl]4-(N-morpholinosulfamoyl)-phenyl]Acetamide] | < 10 µM |
| O=C(Nc1cccc(-c2cc(-c3c(Cl)cccc3-n3ccnc3)no2)c1)C(Cl)Cl [Compound 117, 2,2-Dichloro-N-[3-[3-[2-chloro-6-(N-imidazolyl)phenyl]-5-isoxazolyl]phenyl]Acetamide] | < 10 µM |
| CCOC(=O)C1CCN(c2cccc(Cl)c2-c2cc(-c3cccc(NC(=O)C(Cl)Cl)c3)on2)CC1 [Compound 151, 2,2-Dichloro-N-[3-[3-[2-chloro-6-(4-carboethoxypiperidino)phenyl]-5-isoxazolyl]-phenyl]Acetamide] | > 10 µM |
| O=C(O)c1ccccc1-c1cc(-c2cccc(NC(=O)C(Cl)Cl)c2)on1 [Compound 157, 2,2-Dichloro-N-[3-[3-(2-carboxyphenyl)-5-isoxazolyl]phenyl]Acetamide] | > 10 µM |
| COc1ccc(-c2cc(-c3c(Cl)cccc3Cl)no2)cc1NC(=O)C(Cl)Cl [Compound 173, 2,2-Dichloro-N-[3-[3-(2,6-dichlorophenyl)-5-isoxazolyl]-6-methoxyphenyl]Acetamide] | < 10 µM |
